The text below walks through data of patent EP2818472A1, “Imidazo[4,5-c]pyridine and pyrrolo[3,2-c]pyridine compounds as G-protein-coupled receptor kinase 5 (GRK5) modulators” (Max-Planck-Gesellschaft zur Förderung der Wissenschaften …, priority 2013, dated 2014).

Some results are limits rather than exact numbers.

One experiment has as its system beta-TC6 cells. The experiment in a line: Insulin HTRF assay (relative activity Ar) in beta-TC6 cells. The format is cell-based, mouse. The settings on record: Mus musculus, Beta-TC6, 4 h, insulin HTRF, supernatant of beta-TC6 cells, incubation with test compound at 37°C for 2, 3, 4h; read-out: Ar (relative activity). Put shortly:
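beta-TC6 cells (15k/well, seeded 24 or 48 h) washed, then exposed to compound in induction buffer (0.5% DMSO final) for 2, 3 or 4 h at 37°C.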
Turning to `c1cc2[nH]c(-c3ccsc3)cc2c(Nc2ccc3c(c2)OCCO3)n1` [Compound 252, N-(2,3-dihydro-1,4-benzodioxin-6-yl)-2-(3-thienyl)-1H-pyrrolo[3,2-c]pyridin-4-amine], the Emax was 50 to 100%. Same read-out and setting: next, `Oc1cccc(Nc2nccc3[nH]c(-c4ccc(F)c(F)c4)nc23)c1` [Compound 441, 3-[[2-(3,4-difluorophenyl)-1H-imidazo[4,5-c]pyridin-4-yl]amino]phenol]: 30 to 50%; `COc1ccc(Nc2cc3c(cn2)nc(-c2ccc(OC)c(OC)c2)n3C)cc1O` [Compound 723, 5-[[2-(3,4-dimethoxyphenyl)-1-methyl-imidazo[4,5-c]pyridin-6-yl]amino]-2-methoxy-phenol]: above 100%; `CNc1nc2cnc(-c3cccc(N)c3)cc2n1Cc1ccc(OC)c(OC)c1` [Compound 659, 6-(3-aminophenyl)-1-[(3,4-dimethoxyphenyl)methyl]-N-methyl-imidazo[4,5-c]pyridin-2-amine]: 30 to 50%. Turning to `CNc1nc2cnc(-c3ccccc3)cc2n1Cc1ccc(OC)c(OC)c1` [Compound 669, 1-[(3,4-dimethoxyphenyl)methyl]-N-methyl-6-phenyl-imidazo[4,5-c]pyridin-2-amine], the Emax fell in the range of 30 to 50%.

`CNc1nc2cnc(Nc3cc(OC)c(OC)c(OC)c3)cc2n1-c1cccc(C(F)(F)F)c1` [Compound 539, N2-methyl-1-[3-(trifluoromethyl)phenyl]-N6-(3,4,5-trimethoxyphenyl)imidazo[4,5-c]pyridine-2,6-diamine]: the Emax was in the range of 30 to 50%. On the same count and under the same terms, to `CC(=O)Nc1ccc(Nc2nccc3c2cc(-c2ccsc2)n3C)cc1` [Compound 270, N-[4-[[1-methyl-2-(3-thienyl)pyrrolo[3,2-c]pyridin-4-yl]amino]phenyl]acetamide] belongs 50 to 100%; to `CCN(CC)CCNC(=O)c1ccc(Nc2nccc3[nH]c(-c4cccnc4)nc23)cc1` [Compound 359, N-(2-diethylaminoethyl)-4-[[2-(3-pyridyl)-1H-imidazo[4,5-c]pyridin-4-yl]amino]benzamide], 30 to 50%; to `COc1ccc(Nc2nccc3[nH]c(-c4ccccc4)nc23)cc1OC` [Compound 330, N-(3,4-dimethoxyphenyl)-2-phenyl-1H-imidazo[4,5-c]pyridin-4-amine], above 100%.

In the case of `CN1CCN(c2ccc(Nc3nccc4[nH]c(-c5cccnc5)cc34)cc2)CC1` [Compound 235, N-[4-(4-methylpiperazin-1-yl)phenyl]-2-(3-pyridyl)-1H-pyrrolo[3,2-c]pyridin-4-amine], the Emax lay in the range of 50 to 100%. On the same count and under the same terms, next, `CN(C)C(=O)c1ccc(-c2cc3cnc(Nc4ccccc4)cc3n2C)cc1` [Compound 48, 4-(6-anilino-1-methyl-pyrrolo[3,2-c]pyridin-2-yl)-N,N-dimethyl-benzamide]: 50 to 100%; `CN(C)C(=O)c1ccc(-c2cc3cnc(Nc4ccccn4)cc3n2C)cc1` [Compound 51, N,N-dimethyl-4-[1-methyl-6-(2-pyridylamino)pyrrolo[3,2-c]pyridin-2-yl]benzamide]: 30 to 50%; `CN(C)C(=O)c1ccc(Nc2nccc3[nH]c(-c4ccccc4)cc23)cc1` [Compound 322, N,N-dimethyl-4-[(2-phenyl-1 H-pyrrolo[3,2-c]pyridin-4-yl)amino]benzamide]: above 100%. Still for that read-out and setting: to `COc1cccc(-c2nc3c(Nc4ccc(Cl)cc4)nccc3[nH]2)c1F` [Compound 471, N-(4-chlorophenyl)-2-(2-fluoro-3-methoxy-phenyl)-1H-imidazo[4,5-c]pyridin-4-amine] belongs 0 to 30%; to `COc1ccc(Cn2cnc3cnc(-c4cccnc4)cc32)cc1OC` [Compound 737, 1-[(3,4-dimethoxyphenyl)methyl]-6-(3-pyridyl)imidazo[4,5-c]pyridine], 50 to 100%; to `Fc1ccc(Nc2cc3[nH]c(-c4cn[nH]c4)cc3cn2)cc1` [Compound 114, N-(4-fluorophenyl)-2-(1H-pyrazol-4-yl)-1H-pyrrolo[3,2-c]pyridin-6-amine], 50 to 100%. Still for that read-out and setting: to `COc1cccc(-c2nc3c(NCCc4ccccn4)nccc3[nH]2)c1` [Compound 371, 2-(3-methoxyphenyl)-N-[2-(2-pyridyl)ethyl]-1H-imidazo[4,5-c]pyridin-4-amine] belongs 30 to 50%; to `COc1ccc(Nc2nccc3[nH]c(-c4ccc(OC)cc4)nc23)cc1` [Compound 395, N,2-bis(4-methoxyphenyl)-1H-imidazo[4,5-c]pyridin-4-amine], 50 to 100%; to `CN1CCN(c2ccc(Nc3nccc4[nH]c(-c5cccc(F)c5)cc34)cc2)CC1` [Compound 201, 2-(3-fluorophenyl)-N-[4-(4-methylpiperazin-1-yl)phenyl]-1H-pyrrolo[3,2-c]pyridin-4-amine], 30 to 50%.

As to `CSc1ccc(Nc2cc3c(cn2)cc(-c2cnn(C)c2)n3C)cc1` [Compound 153, 1-methyl-2-(1-methylpyrazol-4-yl)-N-(4-methylsulfanylphenyl)pyrrolo[3,2-c]pyridin-6-amine], the Emax was 30 to 50%. Still for that read-out and setting: next, `COc1ccc(Nc2nccc3[nH]c(-c4ccc5c(c4)OCCO5)nc23)cc1` [Compound 414, 2-(2,3-dihydro-1,4-benzodioxin-6-yl)-N-(4-methoxyphenyl)-1H-imidazo[4,5-c]pyridin-4-amine]: 50 to 100%; `CCN(CC)CCNC(=O)c1ccc(Nc2nccc3[nH]c(-c4ccc(C)cc4)nc23)cc1` [Compound 381, N-(2-diethylaminoethyl)-4-[[2-(p-tolyl)-1H-imidazo[4,5-c]pyridin-4-yl]amino]benzamide]: 50 to 100%. On the same count and under the same terms, to `COCCNc1nccc2[nH]c(-c3cccc(C(F)(F)F)c3)nc12` [Compound 355, N-(2-methoxyethyl)-2-[3-(trifluoromethyl)phenyl]-1H-imidazo[4,5-c]pyridin-4-amine] belongs 30 to 50%; to `CC(=O)Nc1ccc(Nc2nccc3c2cc(-c2ccc(C(=O)N(C)C)cc2)n3C)cc1` [Compound 211, 4-[4-(4-acetamidoanilino)-1-methyl-pyrrolo[3,2-c]pyridin-2-yl]-N,N-dimethyl-benzamide], 30 to 50%; to `COc1cccc(-c2nc3c(NCC4CC4)nccc3[nH]2)c1` [Compound 376, N-(cyclopropylmethyl)-2-(3-methoxyphenyl)-1H-imidazo[4,5-c]pyridin-4-amine], 30 to 50%. Regarding `COc1ccc(Nc2cc3[nH]c(-c4cccnc4)cc3cn2)cn1` [Compound 75, N-(6-methoxy-3-pyridyl)-2-(3-pyridyl)-1H-pyrrolo[3,2-c]pyridin-6-amine], the Emax is above 100%.

In the case of `COc1ccc(Nc2nccc3c2cc(-c2ccc(C(=O)N(C)C)cc2)n3C)cc1OC` [Compound 215, 4-[4-(3,4-dimethoxyanilino)-1-methyl-pyrrolo[3,2-c]pyridin-2-yl]-N,N-dimethyl-benzamide], the Emax lay in the range of 50 to 100%. On the same count and under the same terms, to `CC(=O)Nc1cccc(Nc2nccc3c2cc(-c2cccc(F)c2)n3C)c1` [Compound 210, N-[3-[[2-(3-fluorophenyl)-1-methyl-pyrrolo[3,2-c]pyridin-4-yl]amino]phenyl]acetamide] belongs 30 to 50%.

The same experiment, now with this note: insulin HTRF, supernatant of beta-TC6 cells, incubation with test compound at 37°C for 2, 3, 4h.
Regarding `CNc1nc2cnc(-c3ccc(CO)cc3)cc2n1-c1ccccc1` [Compound 510, [4-[2-(methylamino)-1-phenyl-imidazo[4,5-c]pyridin-6-yl]phenyl]methanol], the “Ar (relative activity)” value was “++ (30 % ≤ Ar < 50 %)”.
